Source: the NIST ThermoML archive (doi:10.1021/je900221m)

Test: cn = amount concentration of the nth substance listed, in mol/dm3
Conditions: 101 kPa, Liquid, Taylor dispersion method

Compound: NNC(=O)c1ccncc1 [isonicotinic acid hydrazide] + O
- binary diffusion coefficient (298.15 K, c1 = 0): 8.26e-10 m2/s
- binary diffusion coefficient (298.15 K, c1 = 0.005): 8.25e-10 m2/s
- binary diffusion coefficient (298.15 K, c1 = 0.01): 8.23e-10 m2/s
- binary diffusion coefficient (298.15 K, c1 = 0.02): 8.21e-10 m2/s
- binary diffusion coefficient (298.15 K, c1 = 0.05): 8.14e-10 m2/s
- binary diffusion coefficient (298.15 K, c1 = 0.1): 8.09e-10 m2/s
- binary diffusion coefficient (310.15 K, c1 = 0): 1.19e-09 m2/s
- binary diffusion coefficient (310.15 K, c1 = 0.005): 1.18e-09 m2/s
- binary diffusion coefficient (310.15 K, c1 = 0.01): 1.15e-09 m2/s
- binary diffusion coefficient (310.15 K, c1 = 0.02): 1.11e-09 m2/s
- binary diffusion coefficient (310.15 K, c1 = 0.05): 1.09e-09 m2/s
- binary diffusion coefficient (310.15 K, c1 = 0.1): 1.04e-09 m2/s
